Tests used:
Assay in all cases: relative viability (nuclei count vs DMSO), 5 days (fraction); higher = more cells survive
[1] = compound: C1/C(=C\C2=CC=CS2)/C(=O)/C(=C/C3=CC=CS3)/C1 + N=C(N)NC(=N)NCCc1ccccc1 [Phenformin] (partner 250 µM)
In short: (§1)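 Relative viability was taken as the ratio of nuclei in treated wells to nuclei in vehicle wells. Lung cancer cell lines in 1536-well plates received compounds by pin tool one day after seeding, either one drug alone or a fixed anchor-drug dose plus five library-drug doses (not always all listed) in √10 steps. Nuclei were counted on 4× images after 5 days of treatment, and values are medians of duplicate plates.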

[2] = compound: C1/C(=C\C2=CC=CS2)/C(=O)/C(=C/C3=CC=CS3)/C1 + CC(=O)c1c(C)c2cnc(Nc3ccc(N4CCNCC4)cn3)nc2n(C2CCCC2)c1=O [Palbociclib] (partner 0.5 µM)
In short: as §1

[3] = compound: C1=CC(=CC=C1C2=CC(=C(S2)NC(=O)N)C(=O)N)F [TPCA-1] + C[C@@H](Oc1cc(-c2cnn(C3CCNCC3)c2)cnc1N)c1c(Cl)ccc(F)c1Cl [Crizotinib] (partner 1 µM)
In short: as §1

[4] = compound: C[C@]12O[C@H](C[C@]1(O)CO)n1c3ccccc3c3c4c(c5c6ccccc6n2c5c31)CNC4=O [Lestaurtinib] + CC(C)C[C@H](NC(=O)[C@H](Cc1ccccc1)NC(=O)c1cnccn1)B(O)O [Bortezomib] (partner 0.002 µM)
In short: as §1

Cell Line | relative viability ([1]; first compound 0.2 µM) | relative viability ([1]; first compound 0.6325 µM) | relative viability ([1]; first compound 2 µM) | relative viability ([1]; first compound 6.325 µM) | relative viability ([1]; first compound 20 µM) | relative viability ([2]; first compound 0.2 µM) | relative viability ([2]; first compound 0.6325 µM) | relative viability ([2]; first compound 2 µM) | relative viability ([2]; first compound 6.325 µM) | relative viability ([2]; first compound 20 µM) | relative viability ([3]; first compound 0.04 µM) | relative viability ([3]; first compound 0.1265 µM) | relative viability ([3]; first compound 0.4 µM) | relative viability ([3]; first compound 1.265 µM) | relative viability ([3]; first compound 4 µM) | relative viability ([4]; first compound 0.005 µM) | relative viability ([4]; first compound 0.01581 µM) | relative viability ([4]; first compound 0.05 µM) | relative viability ([4]; first compound 0.1581 µM) | relative viability ([4]; first compound 0.5 µM)
SW 900 | 0.613 | 0.551 | 0.875 | 0.69 | 0.541 | 0.578 | 0.524 | 0.616 | 0.451 | 0.653 |  |  |  |  |  |  |  |  |  | 
NCI-H1944 | 0.232 | 0.207 | 0.2 | 0.18 | 0.182 | 0.349 | 0.371 | 0.349 |  | 0.317 | 1.18 | 1.03 | 1.02 | 1.02 | 0.682 |  |  |  |  | 
NCI-H727 | 0.64 | 0.642 | 0.671 | 0.525 | 0.494 | 0.632 | 0.678 | 0.61 |  | 0.669 | 0.82 | 0.677 | 1.05 | 0.64 | 0.706 | 0.862 | 1.42 | 0.752 | 0.76 | 0.291
NCI-H1650 | 0.495 | 0.434 | 0.426 | 0.391 | 0.467 | 0.312 | 0.325 | 0.351 | 0.373 | 0.333 | 1.18 | 0.92 | 1.04 | 1.09 | 0.891 | 0.183 | 0.236 | 0.197 | 0.199 | 0.193
HCC-827 | 0.426 | 0.414 | 0.433 | 0.411 | 0.388 | 0.487 | 0.481 | 0.522 | 0.463 | 0.525 | 0.948 | 0.924 | 0.899 | 0.83 | 0.567 | 0.923 | 1.08 | 0.989 | 1.11 | 0.647
HCC-366 | 0.569 | 0.638 | 0.625 | 0.55 | 0.613 | 0.413 | 0.388 | 0.454 | 0.358 | 0.43 | 0.562 | 0.644 | 0.588 | 0.472 | 0.258 | 1.13 | 1.11 | 0.565 | 1.05 | 0.43
HARA | 0.449 | 0.452 | 0.481 | 0.444 | 0.407 | 0.278 | 0.238 | 0.337 | 0.196 | 0.32 | 0.985 | 0.995 | 1.11 | 1.01 | 0.56 | 1.21 | 1.33 | 1 | 0.671 | 0.179
NCI-H322M | 0.85 | 0.814 | 0.923 | 0.628 | 0.768 | 0.517 | 0.508 | 0.529 | 0.431 | 0.468 | 0.807 | 0.924 | 0.873 | 0.841 | 0.728 | 1.25 | 1.34 | 1.13 | 0.588 | 0.967
LXF-289 | 0.553 | 0.536 | 0.554 | 0.459 | 0.513 | 0.648 | 0.615 | 0.567 | 0.577 | 0.56 | 0.84 | 0.785 | 0.794 | 0.806 | 0.537 | 0.975 | 1.08 | 0.75 | 0.762 | 0.185
PC-3 [JPC-3] | 0.494 | 0.495 | 0.452 | 0.423 | 0.458 |  | 0.587 | 0.5 | 0.43 | 0.523 | 0.982 | 0.943 | 1.07 | 0.962 | 0.819 | 0.82 | 0.788 | 0.738 | 0.914 | 0.746
CAL-12T | 0.651 | 0.672 | 0.562 | 0.585 | 0.574 | 0.531 | 0.654 | 0.555 | 0.49 | 0.489 | 0.597 | 0.588 | 0.675 | 0.717 | 0.381 | 0.806 | 1.27 | 0.888 | 0.794 | 0.618
COR-L 105 | 0.526 | 0.491 | 0.499 |  | 0.481 | 0.379 | 0.405 | 0.443 | 0.43 | 0.401 | 0.812 | 1.14 | 0.751 | 0.629 | 0.347 | 0.893 | 0.665 | 0.706 | 0.521 | 0.253
NCI-H2347 | 0.362 | 0.592 | 0.283 |  | 0.49 | 0.381 | 0.454 | 0.449 | 0.398 | 0.413 | 0.806 | 0.557 | 0.676 | 0.553 | 0.521 | 0.871 | 1.49 | 1.17 | 0.961 | 0.797
NCI-H2126 | 0.549 | 0.551 | 0.566 | 0.483 | 0.536 | 0.343 | 0.339 | 0.363 | 0.332 | 0.374 | 1.08 | 0.93 | 1.07 | 0.945 | 0.951 | 1.19 | 1.11 | 0.957 | 1.17 | 0.861
